The source of these data is patent US11000535B2, “Anticancer composition and use thereof” (KAOHSIUNG MEDICAL UNIVERSITY, priority 2015, dated 2021).

Experiment [1] deals with human glycine N-methyltransferase promoter. Put plainly: GNMT promoter-driven luciferase reporter assay in H7GPL cells. The settings on record: H7GPL luciferase. It is filed as cell-based. The protocol:
Please refer to FIG. 1, which illustrates the configuration of pLV-GNMTpLuc plasmid. HEK293T cells were cotransfected with a packaging plasmid-pCMV-ΔR8.91, a VSV-G envelope expressing plasmid-pMD.G and pLV-GNMTpLuc using TurboFect™ Reagent (Fermentas, Hanover, Md.). One resultant colony was picked, amplified and denominated as H7GPL (HuH-7-GNMT promoter-Luciferase). The relative luciferase activity (RLA) was calculated as “activity of luciferase/intensity of alamarBlue fluorescence”. The fold changes in GNMT promoter induction was calculated as “RLA of drug/RLA of solvent control”. Compounds with the ability to activate human glycine N-methyltransferase promoter in H7GPL could serve as a citeria for screening drugs.
Please refer to FIG. 2, which illustrates the luciferase activity in a screening platform. Previously, 26 FDA approved drugs were identified that can reverse the gene expression signature of HCC. We obtained 26 drugs. H7GPL cells were seeded in 96-well plates for 18 hours and then were treated with these 26 drugs and solvent control for an extra 24 hours.
In the initial screening, when (individual luciferase activity−average luciferase activity of all hits)/standardized Z scores of all samples is greater than 1.5, it means the compound has the capability of enhancing the GNMT reporter activity.
Huh7 cells were infected with this virus and selected with puromycin-containing medium. One resultant colony was picked, amplified and denominated as H7GPL (Huh7 GNMT promoter-luciferase). The cell lysate of H7GPL was used for luciferase activity measurement using the Luciferase Assay System (Promega).
For primary screening, H7GPL cells seeded in 96-well plates were treated for 24 h with individual drugs at a concentration of 2 mg/mL for crude extracts and 0.2 mg/mL for pure compounds and then were lysed for the luciferase activity assay using the Luciferase Assay System (Promega, Madison, Wis., USA).
Reporter activity for each well was transformed to the Z score by using data from all assay plates.
Then, hits of primary screening were sorted by Z score ≥1.5 and used for secondary screening.
And then placed in the above-described culture plate H7GPL cell replication, and after the disposal of seized goods in those 20 hours, the company added AbD serotec Reagent (Oxford, UK), further cultured for 4 hours.
The cytotoxicity was measured according to the manufacturer's recommendation for assessing the reporter gene.
Drugs that induced GNMT promoter activity ≥1.5-fold were considered as hits of the secondary screen with the capability of enhancing the activity of GNMT.
On the technique in general: A reporter such as luciferase makes a cellular process visible.

For a further experiment, the system named is Huh7 cells. Put plainly: alamarBlue cell viability / proliferation, Huh7. It is filed as cell-based, human. From the text:
(§1) Next, we analyzed the effect of PGG on cell proliferation in different liver cancer cell lines, including Huh7, Hep3B (ATCC-No 8064), HepG2 (ATCC HB-8065), SK-HEP-1 (ATCC HTB-52), Mahlavu and HepG2 (ATCC HB-8065).
(§2) Please refer to FIG. 18, which illustrates the effect of PGG on cell proliferation in different liver cancer cell lines, wherein the numeral 1 denotes Huh7 cells, the numeral 2 denotes Hep3B cells, the numeral 3 denotes SK-HEP-1 cells, the numeral 4 denotes Mahlavu cells, and the numeral 5 denotes HepG2 cells. And cell viability was determined by the alamarBlue® viability assay. IC50 values of PGG in each cell line are shown as follows: Huh7 cells 0.03 mg/mL, Hep3B cells 0.07 mg/mL, SK-HEP-1 cells, Mahlavu cells and HepG2 0.10 mg/mL dose-dependent.
(§3) Human liver cancer cell lines Huh7, Hep G2, Hep 3B, SK-HEP-1, Mahlavu and embryonic kidney cell line HEK-293T all were cultured in Dulbecco's Modified Eagle's Medium (DMEM) (Gibco BRL, Grand Island, N.Y., USA) with 10% heat-inactivated fetal bovine serum (HyClone, Logan, Utah, USA), penicillin (100 U/mL), streptomycin ([…]), nonessential amino acids (0.1 mM/L) and L-glutamine (2 mM/L) in a humidified incubator with 5% CO2.

A further experiment relates to Hep3B cells. Put plainly: alamarBlue cell viability, Hep3B. It is filed as cell-based, human.
Description: as §1, §2, §3
In general terms: The colour change of resazurin is a common sign of viable cells or microbes.

Another experiment has as its system GNMT. Put plainly: GNMT expression in xenograft tumor samples. It is filed as in vivo, mice. The source says: Please refer to FIG. 21, which illustrates GNMT/actin expression in the tumor tissue.
Please refer to FIG. 30, which illustrates the relative expression of GNMT mRNA in the tumor xenograft mice after treatments, wherein the numeral 1 is for a physiological saline solution, the numeral 2 is for F3-6 (25 mpk), the numeral 3 is for F3-6 (300 mpk), the numeral 4 is for sorafenib (10 mpk), the numeral 5 is for F3-6 (25 mpk) with sorafenib (10 mpk), and the numeral 6 is for PGG (25 mpk) with sorafenib (10 mpk). The expression activity of GNMT mRNA is increased whenever fracrions F3-6 or PGG are administered.
RNA was prepared by using Tri Reagent (Sigma-Aldrich, St Louis, Mo., USA) and was reverse transcribed into cDNA using a Super Script II Reverse Transcriptase Kit (Invitrogen Inc., Carlsbad, Calif., USA).
PCR was performed on an ABI StepOne Plus System (Applied Biosystems, Foster City, Calif., USA) using the LightCycler® First Start DNA Master SYBR Green I reagent (Roche Diagnostics, Basel, Switzerland). The mRNA level was normalized using the TATA-box binding protein (TBP) mRNA level as the standard. […]
Protein lysates were quantified and separated on SDS-PAGE gel, and immunoblotting was carried out. […]

In another experiment the test system is caspase 3/7. Put plainly: Caspase 3/7 activity assay. It is filed as cell-based, human. The settings on record: Huh7 cells, 12 hours. The protocol:
Please refer to FIG. 24, which illustrates PGG induced caspase 3/7 activity in Huh7 cells.
Huh7 cells were plated in 96-well plate and treated with solvent or PGG for 12 h. To measure caspase-3 and caspase-7 activation, the Apo-ONE® Homogeneous Caspase-3/7 assay was performed according to the Promega Technical Bulletin-Apo-ONE® Homogeneous Caspase-3/7 assay.

≈ marks a conversion by molar mass, not a printed value.

Consider `O=C(OC[C@H]1O[C@@H](OC(=O)c2cc(O)c(O)c(O)c2)[C@H](OC(=O)c2cc(O)c(O)c(O)c2)[C@@H](OC(=O)c2cc(O)c(O)c(O)c2)[C@@H]1OC(=O)c1cc(O)c(O)c(O)c1)c1cc(O)c(O)c(O)c1` [PGG, 1,2,3,4,6-penta-O-galloyl-β-D-glucopyranoside], for which the “GNMT promoter activity (in words)” value in experiment [1] is reported as “can induce GNMT promoter activity”. For the same compound, the values for the IC50 with Huh7 cells and in the experiment with Hep3B cells were 30 µg/mL (≈ 31.9 µM) and 70 µg/mL (≈ 74.4 µM), respectively. Moreover, the “GNMT/actin expression in the tumor tissue (immunoblot)” value in the experiment with GNMT (PGG 300 mpk xenograft, FIG. 21) was “induced”. In addition, the “expression activity of GNMT mRNA in the tumor” value in the experiment on GNMT (combination xenograft study, FIG. 30, F3-6 25 or 300 mpk, PGG 25 mpk with sorafenib 10 mpk) is on record as “increased”. For the same compound, the “increase in caspase 3/7 activity” value with caspase 3/7 is given as “five-fold”.

Usually IC50 stands for the concentration at which inhibition is half-maximal. A high value points to weaker potency.
